Measurements as given in patent US7402548B2, “Benzoxazole compounds, process for producing the same and herbicides” (Kyoyu Agri Co., Ltd., priority 2000, dated 2008).

Experiments:
barnyard grass [1] = assay: Herbicidal test for paddy field; format: in vivo, Eschinochloa crusgalli; conditions: 500 g/ha, dropwise addition to paddy water at 1.5 leaf stage of barnyard grass; glass house 25° C., 3 weeks; rank 0-5 vs non-treated district
Method: (§1) Wagner pots, each having an area of 1/5000 are, were packed with Ube soil (alluvial soil) and planted with seeds or tubers of young rice plant, barnyard grass, bulrush, Cyperus serotinus Rottb., arrowhead and monochoria. Then, the pots were filled with water to a depth of 3 cm.
(§2) Each wettable powder of the desired Compounds (I) shown in Tables 1 to 21, 24, 25, 28 and 29 prepared in accordance with Example 2 was diluted with water containing a surfactant (0.05%) and subjected to dropwise addition treatment by using pipet so that an effective concentration of the compound (I) in each herbicide became 500 g/ha at 1.5 leaf stage of barnyard grass.
(§3) These plants were controlled in a glass house at an average temperature of 25° C. for 3 weeks, and then herbicidal effects thereof were investigated.
(§4) The herbicidal effects are evaluated according to the following 6 ranks as compared with non-treated district. (0: normal development, 1: Less damaged, 2: Slightly damaged, 3: Moderately damaged, 4: Severely damaged, 5: All killed). Incidentally, “-” in the column means not investigated.

bulrush = assay: Herbicidal test for paddy field; format: in vivo, Scrips juncoides; conditions: 500 g/ha, dropwise addition to paddy water at 1.5 leaf stage of barnyard grass; glass house 25° C., 3 weeks; rank 0-5 vs non-treated district
Method: as §1, §2, §3, §4

Cyperus serotinus Rottb. = assay: Herbicidal test for paddy field; format: in vivo; conditions: 500 g/ha, dropwise addition to paddy water at 1.5 leaf stage of barnyard grass; glass house 25° C., 3 weeks; rank 0-5 vs non-treated district
Method: as §1, §2, §3, §4

corn [2] = assay: Soil treatment test for upland field; format: in vivo; parameters: key: 0 = normal development, 5 = all killed; conditions: 500 g/ha, 3 weeks, glass house 25° C.
Summary of the method: (§5)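 Seeds were sown in alluvial soil in pots, and a wettable powder diluted in water with 0.05% surfactant was sprayed evenly on the soil surface at 500 g/ha. Plants were kept in a glass house at about 25° C for 3 weeks, then damage was scored 0–5 against untreated controls.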

solgum [3] = assay: Soil treatment test for upland field; format: in vivo; parameters: key: 0 = normal development, 5 = all killed; conditions: 500 g/ha, 3 weeks, glass house 25° C.
Summary of the method: as §5

soybean [4] = assay: Soil treatment test for upland field; format: in vivo; parameters: key: 0 = normal development, 5 = all killed; conditions: 500 g/ha, 3 weeks, glass house 25° C.
Summary of the method: as §5

sugar beat [5] = assay: Soil treatment test for upland field; format: in vivo; parameters: key: 0 = normal development, 5 = all killed; conditions: 500 g/ha, 3 weeks, glass house 25° C.
Summary of the method: as §5

wheat [6] = assay: Soil treatment test for upland field; format: in vivo; parameters: key: 0 = normal development, 5 = all killed; conditions: 500 g/ha, 3 weeks, glass house 25° C.
Summary of the method: as §5

Large crabgrass [7] = assay: Soil treatment test for upland field; format: in vivo, Digitaria adscendens; parameters: key: 0 = normal development, 5 = all killed; conditions: 500 g/ha, 3 weeks, glass house 25° C.
Summary of the method: as §5

barnyard grass [8] = assay: Soil treatment test for upland field; format: in vivo, Eschinochloa crusgalli; parameters: key: 0 = normal development, 5 = all killed; conditions: 500 g/ha, 3 weeks, glass house 25° C.
Summary of the method: as §5

green foxtail [9] = assay: Soil treatment test for upland field; format: in vivo, Setaria viridis; parameters: key: 0 = normal development, 5 = all killed; conditions: 500 g/ha, 3 weeks, glass house 25° C.
Summary of the method: as §5

blackgrass [10] = assay: Soil treatment test for upland field; format: in vivo, Alopecurus aegualis; parameters: key: 0 = normal development, 5 = all killed; conditions: 500 g/ha, 3 weeks, glass house 25° C.
Summary of the method: as §5

annual bluegrass [11] = assay: Soil treatment test for upland field; format: in vivo, Poa annua; parameters: key: 0 = normal development, 5 = all killed; conditions: 500 g/ha, 3 weeks, glass house 25° C.
Summary of the method: as §5

common lambsquarters [12] = assay: Soil treatment test for upland field; format: in vivo, Chenopodium album; parameters: key: 0 = normal development, 5 = all killed; conditions: 500 g/ha, 3 weeks, glass house 25° C.
Summary of the method: as §5

livid amaranth [13] = assay: Soil treatment test for upland field; format: in vivo, Amaranthus lividus; parameters: key: 0 = normal development, 5 = all killed; conditions: 500 g/ha, 3 weeks, glass house 25° C.
Summary of the method: as §5

velvetleaf [14] = assay: Soil treatment test for upland field; format: in vivo, Abutilon theophrasti; parameters: key: 0 = normal development, 5 = all killed; conditions: 500 g/ha, 3 weeks, glass house 25° C.
Summary of the method: as §5

morning glory [15] = assay: Soil treatment test for upland field; format: in vivo, Ipomoea spps.; parameters: key: 0 = normal development, 5 = all killed; conditions: 500 g/ha, 3 weeks, glass house 25° C.
Summary of the method: as §5

corn [16] = assay: Foliar spread test for upland field; format: in vivo; parameters: key: 0 = normal development, 5 = all killed (6 ranks vs. untreated); conditions: foliar spray, 500 ppm, 3 weeks, glass house 25° C.
Summary of the method: (§6)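 Plants grown about 2 weeks at 25 °C in volcanic ash soil were sprayed with wettable powder diluted to 500 ppm in water with 0.5% surfactant. After 3 weeks at 25 °C, damage was scored 0 (normal) to 5 (all killed) against untreated plants.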

cotton = assay: Foliar spread test for upland field; format: in vivo; parameters: key: 0 = normal development, 5 = all killed (6 ranks vs. untreated); conditions: foliar spray, 500 ppm, 3 weeks, glass house 25° C.
Summary of the method: as §6

solgum [17] = assay: Foliar spread test for upland field; format: in vivo; parameters: key: 0 = normal development, 5 = all killed (6 ranks vs. untreated); conditions: foliar spray, 500 ppm, 3 weeks, glass house 25° C.
Summary of the method: as §6

soybean [18] = assay: Foliar spread test for upland field; format: in vivo; parameters: key: 0 = normal development, 5 = all killed (6 ranks vs. untreated); conditions: foliar spray, 500 ppm, 3 weeks, glass house 25° C.
Summary of the method: as §6

sugar beat [19] = assay: Foliar spread test for upland field; format: in vivo; parameters: key: 0 = normal development, 5 = all killed (6 ranks vs. untreated); conditions: foliar spray, 500 ppm, 3 weeks, glass house 25° C.
Summary of the method: as §6

wheat [20] = assay: Foliar spread test for upland field; format: in vivo; parameters: key: 0 = normal development, 5 = all killed (6 ranks vs. untreated); conditions: foliar spray, 500 ppm, 3 weeks, glass house 25° C.
Summary of the method: as §6

Large crabgrass [21] = assay: Foliar spread test for upland field; format: in vivo, Digitaria adscendens; parameters: key: 0 = normal development, 5 = all killed (6 ranks vs. untreated); conditions: foliar spray, 500 ppm, 3 weeks, glass house 25° C.
Summary of the method: as §6

barnyardgrjass = assay: Foliar spread test for upland field; format: in vivo, Eschinochloa crusgalli; parameters: key: 0 = normal development, 5 = all killed (6 ranks vs. untreated); conditions: foliar spray, 500 ppm, 3 weeks, glass house 25° C.
Summary of the method: as §6

green foxtail [22] = assay: Foliar spread test for upland field; format: in vivo, Setaria viridis; parameters: key: 0 = normal development, 5 = all killed (6 ranks vs. untreated); conditions: foliar spray, 500 ppm, 3 weeks, glass house 25° C.
Summary of the method: as §6

blackgrass [23] = assay: Foliar spread test for upland field; format: in vivo, Alopecurus aegualis; parameters: key: 0 = normal development, 5 = all killed (6 ranks vs. untreated); conditions: foliar spray, 500 ppm, 3 weeks, glass house 25° C.
Summary of the method: as §6

annual bluegrass [24] = assay: Foliar spread test for upland field; format: in vivo, Poa annua; parameters: key: 0 = normal development, 5 = all killed (6 ranks vs. untreated); conditions: foliar spray, 500 ppm, 3 weeks, glass house 25° C.
Summary of the method: as §6

common lambsquarters [25] = assay: Foliar spread test for upland field; format: in vivo, Chenopodium album; parameters: key: 0 = normal development, 5 = all killed (6 ranks vs. untreated); conditions: foliar spray, 500 ppm, 3 weeks, glass house 25° C.
Summary of the method: as §6

livid amaranth [26] = assay: Foliar spread test for upland field; format: in vivo, Amaranthus lividus; parameters: key: 0 = normal development, 5 = all killed (6 ranks vs. untreated); conditions: foliar spray, 500 ppm, 3 weeks, glass house 25° C.
Summary of the method: as §6

velvetleaf [27] = assay: Foliar spread test for upland field; format: in vivo, Abutilon theophrasti; parameters: key: 0 = normal development, 5 = all killed (6 ranks vs. untreated); conditions: foliar spray, 500 ppm, 3 weeks, glass house 25° C.
Summary of the method: as §6

morning glory [28] = assay: Foliar spread test for upland field; format: in vivo, Ipomoea spps.; parameters: key: 0 = normal development, 5 = all killed (6 ranks vs. untreated); conditions: foliar spray, 500 ppm, 3 weeks, glass house 25° C.
Summary of the method: as §6

Row | Structure (SMILES) | Effects Barnyardgrass (barnyard grass [1]) | Effects Bulrush (bulrush) | Effects Cyperus serotinus Rottb. (Cyperus serotinus Rottb.) | Effects Corn (corn [2]) | Effects Solgum (solgum [3]) | Effects Soybean (soybean [4]) | Effects Sugar beat (sugar beat [5]) | Effects Wheat (wheat [6]) | Effects Large crabgrass (Large crabgrass [7]) | Effects Barnyardgrass (barnyard grass [8]) | Effects Green foxtail (green foxtail [9]) | Effects Blackgrass (blackgrass [10]) | Effects Annual bluegrass (annual bluegrass [11]) | Effects Common lambsquarters (common lambsquarters [12]) | Effects Livid amaranth (livid amaranth [13]) | Effects Velvetleaf (velvetleaf [14]) | Effects Morning glory (morning glory [15]) | Effects Corn (corn [16]) | Effects Sotton (cotton) | Effects Solgum (solgum [17]) | also measured
1 | CCC(=Cc1cccc(C(F)(F)F)c1)c1nc2cc(C#N)c(F)cc2o1 [I-c-137] | 4 | 4 | 2 | 2 | 2 | 3 | 5 | 1 | 5 | 5 | 5 | 5 | 5 | 5 | 5 | 5 | 5 | 3 | 4 | 2 | Effects Soybean (soybean [18]): 5; Effects Sugar beat (sugar beat [19]): 4; Effects Wheat (wheat [20]): 2; Effects Large crabgrass (Large crabgrass [21]): 4; Effects Barnyardgrass (barnyardgrjass): 3; Effects Green foxtail (green foxtail [22]): 4; Effects Blackgrass (blackgrass [23]): 3; Effects Annual bluegrass (annual bluegrass [24]): 4; Effects Common lambsquarters (common lambsquarters [25]): 5; Effects Livid amaranth (livid amaranth [26]): 5; Effects Velvetleaf (velvetleaf [27]): 4; Effects Morning glory (morning glory [28]): 5
2 | CCC(=Cc1cccc(C(F)(F)F)c1)c1nc2cc(C(F)(F)F)ccc2o1 [I-c-86] | 5 | 4 | 3 | 1 | 1 | 0 | 5 | 0 | 5 | 5 | 5 | 5 | 5 | 5 | 5 | 5 | 5 | 3 | 4 | 2 | Effects Soybean (soybean [18]): 5; Effects Sugar beat (sugar beat [19]): 4; Effects Wheat (wheat [20]): 2; Effects Large crabgrass (Large crabgrass [21]): 4; Effects Barnyardgrass (barnyardgrjass): 2; Effects Green foxtail (green foxtail [22]): 4; Effects Blackgrass (blackgrass [23]): 3; Effects Annual bluegrass (annual bluegrass [24]): 4; Effects Common lambsquarters (common lambsquarters [25]): 5; Effects Livid amaranth (livid amaranth [26]): 5; Effects Velvetleaf (velvetleaf [27]): 3; Effects Morning glory (morning glory [28]): 5
